Data set [1] is described as follows: Crossover interaction study: effect of repeated doses of teriflunomide on the pharmacokinetics of a single dose of rosuvastatin in healthy male subjects. The class given is in vivo, human. As for the experimental part: A single-center, open-label, 1-sequence, 2-period, 2-treatment crossover study with a 5-day washout between periods was conducted in 15 healthy male subjects aged 18 to 45 to evaluate the effect of repeated doses of teriflunomide on the pharmacokinetics (PK) of a single dose of rosuvastatin 10 mg. All subjects received the following treatments during each period: • 1. Period 1: A single 10 mg dose of rosuvastatin was administered in fasted state followed by a 5-day washout (from Days 1 to 6). Day 6 corresponded to Day 1 of Period 2. • 2. Period 2: A loading dose of 70 mg teriflunomide was administered once a day for 4 days (Days 1 to 4), followed by 14 mg once a day for 8 days (Days 5 to 12) in fed conditions except for Day 12. A single dose of 10 mg rosuvastatin was co-administered with teriflunomide on Day 12 in fasted conditions.
The following PK parameters were calculated using noncompartmental methods from plasma rosuvastatin concentration obtained after single dose administration:
Rosuvastatin: Area under the plasma concentration versus time curve (AUC) from time zero to the real time corresponding to the last concentration above the lower limit of quantitation, tlast, (AUClast) and area under the plasma concentration versus time curve extrapolated to infinity (AUC).
Rosuvastatin: Maximum plasma concentration (Cmax) observed, time to reach maximum concentration (Tmax), tlast, and terminal half-life (t1/2z).
Rosuvastatin: Blood samples were collected at predose, 0.5, 1, 2, 3, 4, 5, 6, 8, 10, 12, 24 and 36 hours postdose on Day 1 of Period 1 and Day 12 of Period 2.
Rosuvastatin plasma concentrations were determined by a validated liquid chromatography couples with tandem mass spectrometry (LC-MS/MS) method, with a LLOQ (lower limit of quantification) of 50.1 pg/mL. Teriflunomide plasma concentrations were determined with a validated LC-MS/MS method with an LLOQ of 0.01 μg/mL.
Rosuvastatin PK parameters and teriflunomide Ctrough (trough plasma concentration) were summarized with descriptive statistics for each treatment.

Data set [2] concerns the target T1, BCRP (Homo sapiens, UniProt Q9UNQ0).
T1 sequence (Q9UNQ0 1-655): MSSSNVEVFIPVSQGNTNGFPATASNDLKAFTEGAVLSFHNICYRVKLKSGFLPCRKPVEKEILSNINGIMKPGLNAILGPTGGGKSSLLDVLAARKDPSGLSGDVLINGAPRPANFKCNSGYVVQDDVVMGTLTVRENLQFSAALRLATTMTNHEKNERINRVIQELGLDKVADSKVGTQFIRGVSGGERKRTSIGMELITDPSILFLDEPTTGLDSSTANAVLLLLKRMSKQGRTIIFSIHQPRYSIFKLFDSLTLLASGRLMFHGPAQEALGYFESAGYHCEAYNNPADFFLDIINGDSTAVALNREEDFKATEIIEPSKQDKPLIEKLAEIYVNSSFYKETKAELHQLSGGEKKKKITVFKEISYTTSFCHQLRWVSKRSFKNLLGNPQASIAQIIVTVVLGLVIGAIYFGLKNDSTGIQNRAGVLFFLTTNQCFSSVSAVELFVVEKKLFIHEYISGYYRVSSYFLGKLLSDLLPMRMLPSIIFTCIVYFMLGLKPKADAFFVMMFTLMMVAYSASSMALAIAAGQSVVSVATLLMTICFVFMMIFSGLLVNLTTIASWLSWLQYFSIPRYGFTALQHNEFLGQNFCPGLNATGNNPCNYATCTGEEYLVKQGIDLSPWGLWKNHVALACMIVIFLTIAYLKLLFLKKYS
In words: In vitro inhibition of BCRP. The text has this: (§1) The use of teriflunomide for treating multiple sclerosis is described in U.S. Pat. No. 6,794,410.

In data set [3] the target is T2, human OATP1B1 (Homo sapiens, UniProt Q9Y6L6).
T2 sequence (Q9Y6L6 1-691): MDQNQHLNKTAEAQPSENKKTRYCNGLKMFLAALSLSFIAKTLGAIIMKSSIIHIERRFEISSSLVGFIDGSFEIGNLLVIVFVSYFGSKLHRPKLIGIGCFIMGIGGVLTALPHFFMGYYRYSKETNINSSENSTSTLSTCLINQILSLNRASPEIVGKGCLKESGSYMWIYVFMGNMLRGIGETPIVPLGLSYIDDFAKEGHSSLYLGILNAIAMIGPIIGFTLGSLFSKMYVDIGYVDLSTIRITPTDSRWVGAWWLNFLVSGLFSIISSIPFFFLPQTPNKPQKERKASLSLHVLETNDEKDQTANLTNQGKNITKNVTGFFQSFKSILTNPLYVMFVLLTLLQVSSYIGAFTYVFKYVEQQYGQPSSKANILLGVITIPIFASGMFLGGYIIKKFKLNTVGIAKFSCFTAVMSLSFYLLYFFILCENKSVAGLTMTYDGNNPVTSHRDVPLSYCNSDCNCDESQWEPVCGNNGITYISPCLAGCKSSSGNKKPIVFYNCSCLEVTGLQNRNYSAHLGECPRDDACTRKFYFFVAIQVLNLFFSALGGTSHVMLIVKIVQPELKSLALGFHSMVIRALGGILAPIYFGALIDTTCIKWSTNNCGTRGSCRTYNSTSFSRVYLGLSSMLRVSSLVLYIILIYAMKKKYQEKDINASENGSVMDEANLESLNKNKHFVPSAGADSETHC
In words: In vitro inhibition of human OATP1B1.
Excerpt: as §1

The target in data set [4] is T3, OATP1B3 (Homo sapiens, UniProt Q9NPD5).
T3 sequence (Q9NPD5 1-702): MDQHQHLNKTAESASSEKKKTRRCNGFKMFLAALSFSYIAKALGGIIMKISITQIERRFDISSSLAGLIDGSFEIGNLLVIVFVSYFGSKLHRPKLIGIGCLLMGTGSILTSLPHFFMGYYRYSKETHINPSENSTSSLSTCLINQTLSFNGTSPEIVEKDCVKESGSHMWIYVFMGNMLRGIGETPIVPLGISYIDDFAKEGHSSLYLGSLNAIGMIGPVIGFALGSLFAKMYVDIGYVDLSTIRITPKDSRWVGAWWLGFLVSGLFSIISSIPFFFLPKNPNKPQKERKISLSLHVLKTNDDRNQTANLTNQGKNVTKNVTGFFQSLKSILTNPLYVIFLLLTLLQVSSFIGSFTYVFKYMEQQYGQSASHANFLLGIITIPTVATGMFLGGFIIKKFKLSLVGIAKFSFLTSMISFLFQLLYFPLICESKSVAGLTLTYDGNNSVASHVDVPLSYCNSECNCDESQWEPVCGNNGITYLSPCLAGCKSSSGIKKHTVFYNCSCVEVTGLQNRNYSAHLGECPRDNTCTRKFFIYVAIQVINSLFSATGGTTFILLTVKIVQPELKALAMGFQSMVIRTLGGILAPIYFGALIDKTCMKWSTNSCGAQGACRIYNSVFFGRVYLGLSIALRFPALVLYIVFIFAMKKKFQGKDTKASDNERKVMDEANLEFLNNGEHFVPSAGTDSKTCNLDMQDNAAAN
Put plainly: In vitro inhibition of OATP1B3.
Excerpt: as §1

For data set [5], the target named is T4, OAT3 (Homo sapiens, UniProt Q8TCC7).
T4 sequence (Q8TCC7 1-542): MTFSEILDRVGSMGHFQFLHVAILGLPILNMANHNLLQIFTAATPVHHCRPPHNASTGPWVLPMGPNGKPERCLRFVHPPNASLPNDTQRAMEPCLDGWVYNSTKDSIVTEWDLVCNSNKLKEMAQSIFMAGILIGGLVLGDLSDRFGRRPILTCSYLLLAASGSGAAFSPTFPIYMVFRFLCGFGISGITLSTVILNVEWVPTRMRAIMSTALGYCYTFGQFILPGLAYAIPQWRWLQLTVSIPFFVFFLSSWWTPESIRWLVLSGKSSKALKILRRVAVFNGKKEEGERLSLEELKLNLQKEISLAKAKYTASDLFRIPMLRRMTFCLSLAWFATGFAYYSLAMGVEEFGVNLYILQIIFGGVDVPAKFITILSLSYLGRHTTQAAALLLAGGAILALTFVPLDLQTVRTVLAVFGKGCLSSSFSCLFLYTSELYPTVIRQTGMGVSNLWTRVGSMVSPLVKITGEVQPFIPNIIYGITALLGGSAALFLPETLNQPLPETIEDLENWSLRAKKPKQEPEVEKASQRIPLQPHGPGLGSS
In words: In vitro inhibition of OAT3.
Excerpt: as §1

The mark [6] stands for this setting: following teriflunomide 70 mg QD for 4 days and 14 mg QD for 8 days.

The values below come from patent US9186346B2, “Methods for reducing the risk of an adverse teriflunomide and rosuvastatin interaction in multiple sclerosis patients” (SANOFI, priority 2013, dated 2015).

Consider `CC(C)c1nc(N(C)S(C)(=O)=O)nc(-c2ccc(F)cc2)c1/C=C/[C@@H](O)C[C@@H](O)CC(=O)O` [Rosuvastatin], for which, in data set [1] (setting [6]), the “Increase in mean rosuvastatin AUC” value is given as 2.51 fold and the “Increase in mean rosuvastatin Cmax” value was 2.65 fold. Moreover, the AUC(0-t) in data set [1] (male, human, plasma, rosuvastatin 10 mg alone, mean ± SD, N=15, read-out: Rosuvastatin AUClast) was 31.5 ± 16.4 ng·h/mL. In data set [1] (male, human, plasma, rosuvastatin 10 mg alone, median (min-max), N=15), the Tmax was 3 h. Moreover, the Cmax in data set [1] (male, human, rosuvastatin 10 mg single dose alone, fasted, Day 1 Period 1, plasma, mean ± SD, N=15) was 3.65 ± 1.78 ng/mL. Further, in data set [1] (rosuvastatin 10 mg alone, mean ± SD, N=15), the “Rosuvastatin t1/2z” value was 11.1 ± 2.99 h.
Broadly, the IC50 is the midpoint of a concentration-inhibition curve. The low end stands for higher potency, the high end for lower potency. Turning to `C/C(O)=C(\C#N)C(=O)Nc1ccc(C(F)(F)F)cc1` [Teriflunomide, (Z)-2-cyano-3-hydroxy-but-2-enoic acid-(4′-trifluoromethylphenyI)-amide], the IC50 in data set [2] is 0.15 µM; in data set [3], 7.1 µM; in data set [4] it was 7.04 µM; in data set [5] it was 1.3 µM.
